The subject of one experiment is HIV-1NL4-3. The settings on record: cultures of human PBMC, 10 nM peptide. The source says:
(§1) Cultures of PHA- and IL-2-activated PBMCs were infected with equal infectious doses of the following virus stocks: HIV-1NL4-3 (A, B, C), NL4-3(AD8) (D) as well as the vpu-deficient mutant NL(AD8)-UDEL1 (E), and the vpr-deficient mutant NL(AD8)deltaR (F).

The next experiment relates to human PBMC. The conditions noted are these: cultures of human PBMC infected with HIV-1NL4-3, 10 nM peptide.
Description: as §1

Experiment [1] deals with vpr deficient HIV-1 mutant viruses. The conditions noted are these: primary human monocytes/macrophages from different donors, vpr-deficient mutant NL(AD8)deltaR, two months. The source says:
Parallel cultures of differentiated MDM isolated from three different donors were infected with equal infectious doses of purified virus stocks of the macrophage-tropic virus NL4-3(AD8) as well as the vpr-deficient mutant NL(AD8)deltaR. Virus production was followed over a time frame of two months and release of virus associated RT-activity was plotted against time.

The conditions of experiment [2]: compared with native viral Vpr.

Take “H-Met-Glu-Gln-Ala-Pro-Glu-Asp-Gln-Gly-Pro-Gln-Arg-Glu-Pro-Tyr-Asn-Gln-Trp-Thr-Leu-Glu-Leu-Leu-Glu-Glu-Leu-Lys-Ser-Glu-Ala-Val-Arg-His-Phe-Pro-Arg-Ile-Trp-Leu-His-Asn-Leu-Gly-Gln-His-Ile-Tyr-Glu-Thr-Tyr-Gly-Asp-Thr-Trp-Ala-Gly-Val-Glu-Ala-Ile-Ile-Arg-Ile-Leu-Gln-Gln-Leu-Leu-Phe-Ile-His-Phe-Arg-Ile-Gly-Cys-Arg-His-Ser-Arg-Ile-Gly-Val-Thr-Arg-Gln-Arg-Arg-Ala-Arg-Asn-Gly-Ala-Ser-Arg-Set-OH [sVpr^1-96]”: in the experiment on HIV-1NL4-3, the “virus replication (virus associated RT-activity released into cell culture supernatant)” value is given as “activates virus replication”. In addition, in the experiment with human PBMC, the “number of live cells” value was “increases the number of live cells”. Besides, the “virus replication (release of virus associated RT-activity)” value in experiment [1] is reported as “activates virus replication”. Further, in experiment [2], the biological activities result is listed as “comparable to native viral Vpr”.

(Values after patent US6984486B1, “Synthetic peptide of regulatory virus protein R (VPR) of human immunodeficiency virus type 1 (HIV-1) and the utilization thereof” (J. David Gladstone Institutes, priority 1999, dated 2006).)
